Calls of active or inactive are those of the source. The calls are words filed in the database; no cut-off is given here.
Columns and labels:
[1] = target: Dual specificity mitogen-activated protein kinase kinase 2 (Homo sapiens, UniProt P36507); assay: Inhibition of human MEK2 using ERK2 as substrate in presence of [gamma-33P]-ATP by scintillation counting method
[2] = target: T1, Activin receptor type-1-like (Homo sapiens, UniProt P37023); conditions: 0.1 to 10 uM
Description: Inhibition of ALK1 in human A375 cells assessed as decrease in MEK1/2 phosphorylation at 0.1 to 10 uM by western blot analysis

[3] = target: T2, Activin receptor type-1-like (Mus musculus) (UniProt Q61288); assay: Inhibition of BMP9-stimulated ALK1 in mouse C2C12 cells assessed as decrease in ERK1/2 phosphorylation at 0.1 to 10 uM pretreated for 2 hrs followed by BMP9-stimulation after 30 mins by western blot analysis; format: cell-based
T2 sequence (whole entry): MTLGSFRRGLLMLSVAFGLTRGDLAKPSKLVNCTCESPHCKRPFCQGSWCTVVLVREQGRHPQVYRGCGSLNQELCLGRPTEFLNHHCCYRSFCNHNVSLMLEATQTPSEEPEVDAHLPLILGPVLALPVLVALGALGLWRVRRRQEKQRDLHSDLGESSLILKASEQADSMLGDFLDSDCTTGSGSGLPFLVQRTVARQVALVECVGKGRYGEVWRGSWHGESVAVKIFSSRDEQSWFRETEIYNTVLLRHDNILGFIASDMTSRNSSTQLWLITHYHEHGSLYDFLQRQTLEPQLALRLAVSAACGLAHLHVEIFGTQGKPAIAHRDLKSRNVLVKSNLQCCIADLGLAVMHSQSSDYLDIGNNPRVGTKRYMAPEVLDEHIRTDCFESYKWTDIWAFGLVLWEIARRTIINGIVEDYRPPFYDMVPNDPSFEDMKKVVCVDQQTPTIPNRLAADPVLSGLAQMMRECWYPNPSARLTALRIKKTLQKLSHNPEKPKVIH

TGF-beta receptor type-1 [4] = target: T3, TGF-beta receptor type-1 (Mus musculus, UniProt Q64729); assay: Inhibition of ALK5 in mouse C2C12 assessed as decrease in TGFbeta1-induced Smad1/5 phosphorylation at 0.1 to 10 uM by Western blot method
T3 sequence (Q64729 whole entry): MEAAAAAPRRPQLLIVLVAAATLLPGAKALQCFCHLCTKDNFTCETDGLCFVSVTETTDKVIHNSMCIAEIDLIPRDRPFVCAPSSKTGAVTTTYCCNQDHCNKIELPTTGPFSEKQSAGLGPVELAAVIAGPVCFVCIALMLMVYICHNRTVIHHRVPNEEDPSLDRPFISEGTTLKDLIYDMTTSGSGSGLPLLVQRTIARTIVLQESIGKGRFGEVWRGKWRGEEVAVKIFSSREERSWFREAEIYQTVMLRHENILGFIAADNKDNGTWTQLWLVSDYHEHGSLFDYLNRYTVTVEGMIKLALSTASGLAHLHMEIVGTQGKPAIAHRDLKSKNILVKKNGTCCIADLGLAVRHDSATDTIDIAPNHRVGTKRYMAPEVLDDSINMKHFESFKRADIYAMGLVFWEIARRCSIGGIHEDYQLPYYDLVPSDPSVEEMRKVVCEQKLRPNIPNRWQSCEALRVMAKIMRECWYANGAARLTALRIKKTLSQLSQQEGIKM

[5] = target: MAP kinase-interacting serine/threonine-protein kinase 1 (Homo sapiens) (UniProt Q9BUB5); conditions: 1 uM
Sequence of MAP kinase-interacting serine/threonine-protein kinase 1 (Homo sapiens) (Q9BUB5 whole entry, looked up): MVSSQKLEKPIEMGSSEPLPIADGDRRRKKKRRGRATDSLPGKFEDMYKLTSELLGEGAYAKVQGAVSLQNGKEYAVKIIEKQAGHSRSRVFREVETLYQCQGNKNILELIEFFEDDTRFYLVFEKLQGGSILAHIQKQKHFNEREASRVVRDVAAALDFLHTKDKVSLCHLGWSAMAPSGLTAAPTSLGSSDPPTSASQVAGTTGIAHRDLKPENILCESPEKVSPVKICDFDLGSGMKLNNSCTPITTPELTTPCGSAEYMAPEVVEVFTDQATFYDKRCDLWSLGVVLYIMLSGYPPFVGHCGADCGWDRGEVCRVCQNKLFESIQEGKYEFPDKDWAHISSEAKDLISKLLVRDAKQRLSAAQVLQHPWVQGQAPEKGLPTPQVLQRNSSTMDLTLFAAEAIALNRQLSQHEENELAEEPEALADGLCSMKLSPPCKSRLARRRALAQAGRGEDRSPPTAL
Description: Inhibition of human MNK1 at 1 uM using myelin basic protein as substrate in presence of [gamma-33P]-ATP by scintillation counting method relative to control

[6] = target: Vascular endothelial growth factor receptor 3 (Homo sapiens, UniProt P35916); assay: Inhibition of human FLT4 using poly[Glu:Tyr] (4:1) as substrate in presence of [gamma-33P]-ATP by scintillation counting method
[7] = target: Mitogen-activated protein kinase kinase kinase 20 (Homo sapiens) (UniProt Q9NYL2); conditions: 1 uM
Description: Inhibition of human ZAK at 1 uM using myelin basic protein as substrate in presence of [gamma-33P]-ATP by scintillation counting method relative to control

[8] = target: TGF-beta receptor type-2 (Homo sapiens) (UniProt P37173); conditions: 1 uM
Description: Inhibition of human TGFbetaR2 at 1 uM using myelin basic protein as substrate in presence of [gamma-33P]-ATP by scintillation counting method relative to control

[9] = target: T2, Activin receptor type-1-like (Mus musculus); assay: Inhibition of BMP9-stimulated ALK1 in mouse C2C12 cells assessed as reduction in Smad1/5 phosphorylation at 0.1 to 10 uM pretreated for 2 hrs followed by BMP9-stimulation after 30 mins by western blot analysis; format: cell-based
[10] = target: Dual specificity mitogen-activated protein kinase kinase 6 (Homo sapiens) (UniProt P52564); assay: Inhibition of human MKK6 at 1 uM using p38a as substrate in presence of [gamma-33P]-ATP by scintillation counting method relative to control
Sequence of Dual specificity mitogen-activated protein kinase kinase 6 (Homo sapiens) (P52564 whole entry): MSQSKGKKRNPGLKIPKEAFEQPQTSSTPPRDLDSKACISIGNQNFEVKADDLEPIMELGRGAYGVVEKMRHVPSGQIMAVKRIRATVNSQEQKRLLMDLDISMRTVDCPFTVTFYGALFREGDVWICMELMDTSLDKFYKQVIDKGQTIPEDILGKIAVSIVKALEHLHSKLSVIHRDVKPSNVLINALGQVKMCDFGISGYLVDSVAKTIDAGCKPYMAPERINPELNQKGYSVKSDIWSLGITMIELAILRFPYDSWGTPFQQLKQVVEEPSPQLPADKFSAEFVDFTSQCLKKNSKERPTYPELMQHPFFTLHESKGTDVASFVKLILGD

[11] = target: Dual specificity mitogen-activated protein kinase kinase 6 (Homo sapiens, UniProt P52564); assay: Inhibition of human MKK6 using p38a as substrate in presence of [gamma-33P]-ATP by scintillation counting method
Sequence of Dual specificity mitogen-activated protein kinase kinase 6 (P52564 whole entry): as above

[12] = target: Vascular endothelial growth factor receptor 2 (Homo sapiens, UniProt P35968); assay: Inhibition of human KDR using poly[Glu:Tyr] (4:1) as substrate in presence of [gamma-33P]-ATP by scintillation counting method
Sequence of Vascular endothelial growth factor receptor 2 (P35968 whole entry): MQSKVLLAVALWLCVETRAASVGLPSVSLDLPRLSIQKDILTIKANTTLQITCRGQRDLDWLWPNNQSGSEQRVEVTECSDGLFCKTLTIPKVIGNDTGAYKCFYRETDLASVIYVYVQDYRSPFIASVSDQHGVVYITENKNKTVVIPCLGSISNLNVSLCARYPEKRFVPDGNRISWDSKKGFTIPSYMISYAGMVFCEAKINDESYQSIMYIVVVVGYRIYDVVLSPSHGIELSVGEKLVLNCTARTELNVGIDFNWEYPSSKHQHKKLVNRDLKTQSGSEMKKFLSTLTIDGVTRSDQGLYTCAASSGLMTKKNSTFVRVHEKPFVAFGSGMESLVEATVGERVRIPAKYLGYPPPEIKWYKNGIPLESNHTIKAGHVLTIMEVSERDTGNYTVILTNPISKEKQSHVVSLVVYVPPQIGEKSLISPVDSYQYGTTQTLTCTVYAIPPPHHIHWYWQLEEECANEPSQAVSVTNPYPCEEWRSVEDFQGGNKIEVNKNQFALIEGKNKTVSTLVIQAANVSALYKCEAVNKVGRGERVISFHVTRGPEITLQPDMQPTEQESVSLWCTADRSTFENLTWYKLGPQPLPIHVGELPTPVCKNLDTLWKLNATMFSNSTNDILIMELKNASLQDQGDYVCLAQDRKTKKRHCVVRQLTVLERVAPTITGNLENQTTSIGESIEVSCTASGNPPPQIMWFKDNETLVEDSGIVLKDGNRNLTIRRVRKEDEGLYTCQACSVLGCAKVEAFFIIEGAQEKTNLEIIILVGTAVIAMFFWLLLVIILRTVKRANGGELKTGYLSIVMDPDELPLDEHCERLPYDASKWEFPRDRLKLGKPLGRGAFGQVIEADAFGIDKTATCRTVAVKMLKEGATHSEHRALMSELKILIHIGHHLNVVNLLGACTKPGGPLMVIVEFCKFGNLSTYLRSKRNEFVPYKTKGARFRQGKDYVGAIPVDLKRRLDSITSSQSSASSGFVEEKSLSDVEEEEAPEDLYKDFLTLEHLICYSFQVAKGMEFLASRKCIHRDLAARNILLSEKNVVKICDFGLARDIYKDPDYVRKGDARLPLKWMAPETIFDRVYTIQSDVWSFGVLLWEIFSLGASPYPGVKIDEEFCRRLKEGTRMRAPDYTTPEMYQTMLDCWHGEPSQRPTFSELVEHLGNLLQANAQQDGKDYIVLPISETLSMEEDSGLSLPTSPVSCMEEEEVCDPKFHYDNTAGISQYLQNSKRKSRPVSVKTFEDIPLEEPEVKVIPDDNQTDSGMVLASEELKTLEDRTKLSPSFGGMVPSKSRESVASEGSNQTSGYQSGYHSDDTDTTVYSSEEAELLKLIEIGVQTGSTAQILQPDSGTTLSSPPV

[13] = target: MAP kinase-interacting serine/threonine-protein kinase 2 (Homo sapiens) (UniProt Q9HBH9); conditions: 1 uM
Sequence of MAP kinase-interacting serine/threonine-protein kinase 2 (Homo sapiens) (Q9HBH9 whole entry, looked up): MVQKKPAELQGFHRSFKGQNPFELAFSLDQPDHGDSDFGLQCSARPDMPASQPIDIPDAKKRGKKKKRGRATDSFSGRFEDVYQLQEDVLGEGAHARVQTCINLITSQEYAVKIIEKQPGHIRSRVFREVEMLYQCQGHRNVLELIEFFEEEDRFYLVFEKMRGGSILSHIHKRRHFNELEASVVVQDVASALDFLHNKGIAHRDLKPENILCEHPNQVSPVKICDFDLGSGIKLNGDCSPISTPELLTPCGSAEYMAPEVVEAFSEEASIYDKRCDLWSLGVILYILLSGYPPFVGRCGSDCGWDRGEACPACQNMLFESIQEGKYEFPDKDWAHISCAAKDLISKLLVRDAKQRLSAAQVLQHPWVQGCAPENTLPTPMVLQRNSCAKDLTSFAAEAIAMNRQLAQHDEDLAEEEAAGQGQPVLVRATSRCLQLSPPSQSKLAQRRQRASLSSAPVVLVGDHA
Description: Inhibition of human MNK2 at 1 uM using myelin basic protein as substrate in presence of [gamma-33P]-ATP by scintillation counting method relative to control

[14] = target: Mitogen-activated protein kinase kinase kinase 7 (Homo sapiens) (UniProt O43318); conditions: 1 uM
Description: Inhibition of human TAK1 at 1 uM using casein as substrate in presence of [gamma-33P]-ATP by scintillation counting method relative to control

[15] = target: T2, Activin receptor type-1-like (Mus musculus); assay: Inhibition of BMP9-stimulated ALK1 in mouse C2C12 cells assessed as decrease in p38 phosphorylation at 0.1 to 10 uM pretreated for 2 hrs followed by BMP9-stimulation after 30 mins by western blot analysis; format: cell-based
[16] = target: T2, Activin receptor type-1-like (Mus musculus); assay: Inhibition of BMP9-stimulated ALK1 in mouse C2C12 cells assessed as decrease in MEK phosphorylation at 0.1 to 10 uM pretreated for 2 hrs followed by BMP9-stimulation after 30 mins by western blot analysis; format: cell-based
[17] = target: Dual specificity mitogen-activated protein kinase kinase 4 (Homo sapiens) (UniProt P45985); conditions: 1 uM
Sequence of Dual specificity mitogen-activated protein kinase kinase 4 (Homo sapiens) (P45985 whole entry): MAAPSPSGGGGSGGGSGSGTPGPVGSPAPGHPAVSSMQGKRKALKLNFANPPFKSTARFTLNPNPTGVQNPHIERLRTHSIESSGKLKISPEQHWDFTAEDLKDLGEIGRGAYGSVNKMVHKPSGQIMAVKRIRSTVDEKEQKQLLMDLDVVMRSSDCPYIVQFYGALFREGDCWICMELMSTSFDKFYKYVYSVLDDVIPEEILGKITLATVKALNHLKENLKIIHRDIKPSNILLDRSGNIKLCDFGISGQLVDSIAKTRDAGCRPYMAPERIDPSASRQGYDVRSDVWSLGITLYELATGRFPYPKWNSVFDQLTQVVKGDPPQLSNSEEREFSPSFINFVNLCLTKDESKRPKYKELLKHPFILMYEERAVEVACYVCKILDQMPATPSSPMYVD
Description: Inhibition of human MKK4 at 1 uM using JNK1 as substrate in presence of [gamma-33P]-ATP by scintillation counting method relative to control

TGF-beta receptor type-1 [18] = target: T3, TGF-beta receptor type-1; assay: Inhibition of ALK5 in mouse C2C12 cells assessed as decrease in TGFbeta1-induced Smad2/3 phosphorylation at 0.1 to 10 uM by Western blot method; format: cell-based
[19] = target: T1, Activin receptor type-1-like; assay: Inhibition of human ALK1 using casein as substrate in presence of [gamma-33P]-ATP by scintillation counting method
[20] = target: Receptor-type tyrosine-protein kinase FLT3 (Homo sapiens, UniProt P36888); assay: Inhibition of human FLT3 using EAIYAAPFAKKK peptide as substrate in presence of [gamma-33P]-ATP by scintillation counting method
Sequence of Receptor-type tyrosine-protein kinase FLT3 (P36888 whole entry): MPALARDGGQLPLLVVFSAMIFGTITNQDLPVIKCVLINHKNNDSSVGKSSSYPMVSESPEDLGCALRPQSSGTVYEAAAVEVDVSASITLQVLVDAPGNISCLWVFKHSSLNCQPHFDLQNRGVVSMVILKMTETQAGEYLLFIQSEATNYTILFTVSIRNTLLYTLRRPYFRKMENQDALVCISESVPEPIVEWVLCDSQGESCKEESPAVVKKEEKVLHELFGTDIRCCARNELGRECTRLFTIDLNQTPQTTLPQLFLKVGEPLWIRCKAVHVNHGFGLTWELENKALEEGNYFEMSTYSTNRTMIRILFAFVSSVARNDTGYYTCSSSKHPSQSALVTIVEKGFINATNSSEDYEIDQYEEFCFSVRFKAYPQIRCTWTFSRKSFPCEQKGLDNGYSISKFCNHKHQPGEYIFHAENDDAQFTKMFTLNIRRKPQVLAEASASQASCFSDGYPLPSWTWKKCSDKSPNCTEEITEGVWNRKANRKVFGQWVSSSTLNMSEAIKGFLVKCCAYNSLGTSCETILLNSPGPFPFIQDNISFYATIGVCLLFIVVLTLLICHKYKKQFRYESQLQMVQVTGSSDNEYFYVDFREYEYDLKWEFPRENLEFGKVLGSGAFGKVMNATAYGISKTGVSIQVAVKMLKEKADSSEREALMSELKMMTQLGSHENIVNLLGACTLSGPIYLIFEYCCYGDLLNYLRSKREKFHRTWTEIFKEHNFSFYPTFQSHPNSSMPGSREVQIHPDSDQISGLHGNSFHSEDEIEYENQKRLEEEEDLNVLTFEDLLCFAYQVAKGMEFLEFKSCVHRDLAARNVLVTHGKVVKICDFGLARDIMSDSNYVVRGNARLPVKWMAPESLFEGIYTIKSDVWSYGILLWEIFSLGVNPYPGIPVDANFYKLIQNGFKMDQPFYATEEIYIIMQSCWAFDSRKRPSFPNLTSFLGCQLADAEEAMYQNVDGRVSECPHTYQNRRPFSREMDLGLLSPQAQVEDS

T1 sequence (P37023 whole entry): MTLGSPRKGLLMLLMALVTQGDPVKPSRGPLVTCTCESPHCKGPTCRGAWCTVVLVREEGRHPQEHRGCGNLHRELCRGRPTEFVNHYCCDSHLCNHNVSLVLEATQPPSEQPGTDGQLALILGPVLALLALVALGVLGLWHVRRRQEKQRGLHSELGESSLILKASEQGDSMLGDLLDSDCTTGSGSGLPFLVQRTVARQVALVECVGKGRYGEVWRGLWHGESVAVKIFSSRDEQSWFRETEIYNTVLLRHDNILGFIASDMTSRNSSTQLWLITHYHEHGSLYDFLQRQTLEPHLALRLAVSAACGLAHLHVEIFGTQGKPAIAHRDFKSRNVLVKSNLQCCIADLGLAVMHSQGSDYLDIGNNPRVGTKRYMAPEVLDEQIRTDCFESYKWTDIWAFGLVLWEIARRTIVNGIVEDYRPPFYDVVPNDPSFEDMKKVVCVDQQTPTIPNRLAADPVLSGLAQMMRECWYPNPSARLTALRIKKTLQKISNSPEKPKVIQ
Sequence of Dual specificity mitogen-activated protein kinase kinase 2 (P36507 whole entry): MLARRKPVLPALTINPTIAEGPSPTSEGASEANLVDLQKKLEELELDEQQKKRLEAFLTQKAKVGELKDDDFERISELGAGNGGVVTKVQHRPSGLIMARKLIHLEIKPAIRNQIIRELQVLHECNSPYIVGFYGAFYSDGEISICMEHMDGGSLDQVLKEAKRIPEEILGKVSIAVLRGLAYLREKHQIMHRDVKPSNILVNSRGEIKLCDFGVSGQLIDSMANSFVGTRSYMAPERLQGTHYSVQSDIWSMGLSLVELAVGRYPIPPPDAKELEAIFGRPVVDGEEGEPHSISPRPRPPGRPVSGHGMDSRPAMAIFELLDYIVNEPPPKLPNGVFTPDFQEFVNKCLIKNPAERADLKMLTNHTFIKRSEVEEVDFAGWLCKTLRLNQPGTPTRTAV

In the case of `COc1cc(O)c2c(c1)CCC[C@H](O)[C@H](O)C(=O)/C=C\C[C@H](C)OC2=O`, the IC50 [1] is reported as 8.16 nM, the inhibition [2] is reported as “Active” and the inhibition [3] is reported as “Active”. For the same compound, the “inhibition (INH)” value (TGF-beta receptor type-1 [4]) was “Active”, the inhibition [5] was greater than 80% and the IC50 [6] was 1.13 nM. For the same compound, the inhibition [7] was greater than 80%, the inhibition [8] was greater than 80% and the inhibition [9] was “Active”. It also gave an inhibition [10] greater than 80%, an IC50 [11] of 388 nM and an IC50 [12] of 6.34 nM. For the same compound, the inhibition [13] was greater than 80%, the inhibition [14] was greater than 80% and the inhibition [15] was “Active”. The inhibition [16] was “Active”, the inhibition [17] was greater than 80% and the “inhibition (INH)” value (TGF-beta receptor type-1 [18]) was “Active”. The IC50 [19] was 125 nM and the IC50 [20] was 1.59 nM.

Source: ChEMBL document CHEMBL3997792, “Identification of the First Selective Activin Receptor-Like Kinase 1 Inhibitor, a Reversible Version of L-783277” (J Med Chem, 2017)
